Results on two substances are retold here after article PMC4872532, “Development of antithrombotic nanoconjugate blocking integrin α2β1-collagen interactions” (Scientific Reports, 2016).

Where no end group is shown, it is not given here.

The target in data set [1] is Triple Helical Collagen Peptide (GPO)2GFOGER(GPO)3. Briefly: Isothermal titration calorimetry, binding to triple helical collagen peptide. As to conditions: L-PGMA in deionized water containing normal saline concentration, 600 μM collagen peptide, 10 °C, mean ± S.D., N = 3. As for the experimental part:
ITC experiments were performed to investigate the thermodynamic binding characteristics of L-PGMA NPs on the triple helical collagen peptide (Fig. 4A). The triple helix collagen peptide containing GFOGER recognition sequence was titrated with L-PGMA NPs. The data of LWWNSYY was also examined and used as control.
(§1) Glycidyl methacrylate (97%) and ethylene glycol dimethacrylate (97%) were purchased from Sigma-Aldrich (St. Louis, MO, USA). Dimethy sulfoxide (DMSO), epichlorohydrin (ECH), EG and sodium borohydride (NaBH4) were of analytical grade from Guangfu Fine Chemical Research Institute (Tianjin, China). The triple helix collagen peptide, with an amino acid sequence of (GPO)2GFOGER(GPO)3, was purchased as HPLC-purified powder with a purity of >95% from ChinaPeptides (Shanghai, China). LWWNSYY was obtained as lyophilized powder with a purity of >95% from GL Biochem (Shanghai, China). Sheep blood containing 0.4% sodium citrate (w/v) was purchased from Ruite Bio-tec (Guangzhou, China). Bovine serum albumin (BSA) was purchased from Sigma (St. Louis, MO, USA). ρ-nitrophenylphosphate (PNPP) was purchased from Aladdin Industrial Corporation (Shanghai, China) with a purity of 98%. Sodium chloride (NaCl), tris (hydroxymethyl) aminomethane (Tris) and other reagents were of analytical grade from Sangon Biotech Co., Ltd. (Shanghai, China).
The binding between collagen peptide and LWWNSYY in normal saline or normal saline containing 25% (v/v) EG was investigated following the procedure reported previously, the concentration of collagen peptide in the cell was 80 μM, while the concentration of LWWNSYY was 1.0 mM. To investigate the binding between collagen peptide and L-PGMA NPs in normal saline, the concentration of L-PGMA NPs in the cell was 48 μM (in full text, the concentration of L-PGMA NPs represents the concentration of conjugated LWWNSYY on the surface of L-PGMA NPs in solution), while the concentration of collagen peptide was 600 μM. All samples were treated by 20 min degassing prior to the examination. Isothermal calorimetric titrations were performed in a titration mode with a 1.425 mL sample cell, using a VP isothermal titration calorimeter (MicroCal, Northampton, MA). 8 μL LWWNSYY was injected over 16 s for 30 times, with a spacing time of 350 s between injections. The reference power was set to 20 μcal/s, and the stirring speed was 307 rpm. To reserve the active triple helical form of collagen peptide, the temperature in ITC cell was kept at 10 °C. […] Titration data were analyzed using MicroCal Origin (Version 7.0). […] Consequently, the integrated enthalpy was calculated from the single-site binding model. Thermodynamics parameters, including Kd, ΔH, TΔS, and Gibbs free energy (ΔG) were calculated.
(ITC needs no label: the signal is the heat of the interaction.)

Data set [2] deals with platelet adhesion on collagen peptide. Briefly: Platelet solid-phase adhesion assay on collagen peptide. It is filed as cell-based, sheep. The note with it: for IC50, concentration required to inhibit half of the specific binding (platelet adhesion): collagen peptide coated 100 μg/mL, inhibitor in normal saline 1 h at 18 °C, washed, platelets 1 h at 18 °C, p-nitrophenyl phosphate read-out 405 nm, L-PGMA NPs concentration = conjugated LWWNSYY.
Source text: as §1
Adhesion was determined colorimetrically, following the procedure reported previously. Anticoagulated sheep blood was obtained by the addition of 0.4% sodium citrate (w/v), allowing about five days for the transportation before the tests. Platelet-rich plasma (PRP) was obtained as the supernatant after centrifugation of the anticoagulated sheep blood at 180 g for 20 min at 4 °C. Then platelet was obtained as the precipitate after centrifugation of PRP at 1000 g for 10 min at 4 °C[12], which was suspended in adhesion buffer (TBS containing 0.1% BSA) to prepare platelet suspension buffer for further use. Microtiter HB 96-well plates (Costar, Corning Inc., USA) were coated with 100 μL collagen peptide (100 μg/mL) dissolved in 0.01 M acetic acid for 4 h at 18 °C. Reagents without adhesion were discarded, and the wells were washed by 200 μL TBS (50 mM Tris-HCl, 140 mM NaCl, 2 mM Mg^2+, pH 7.4) for three times. Then, wells were blocked for 1 h by 100 μL of TBS containing 50 mg/mL BSA. After three washes by 200 μL TBS, 100 μL LWWNSYY or L-PGMA NPs with different concentrations dissolved in normal saline was applied to each well and incubated at 18 °C for 1 h. 100 μL platelet suspension buffer were added to each well after three washes to remove non-reacted inhibitors, and plates were incubated at 18 °C for 1 h. Unbound platelets were then discarded, and the wells were washed as above. 150 μL lysis buffer (0.1 M citrate, pH 5.4, containing 0.1% Triton X-100 and 5 mM p-nitrophenyl phosphate) was added to each well. Reaction was terminated after 1 h by addition of 100 μL NaOH (3 M), and plates were read at 405 nm using an automated plate reader (ELX800, BioTek Instruments Inc., USA). […] The effect of binding to BSA or B-PGMA NPs was eliminated. According to the standard above, the absorption value was transformed to inhibition ratio. Data was presented as the mean ± S.D. from three independent experiments (n = 8). Dose-response inhibition ratio curves were fitted using the Hill equation[48][49]. The concentration of LWWNSYY or L-PGMA NPs required to inhibit half of the specific binding, IC50, and the maximum inhibition ratio, IRmax, were calculated based on the Hill equation[50].

Data set [3] has as its system carotid artery thrombus formation. The data set is described as follows: FeCl3-induced carotid artery thrombus formation. The class given is in vivo, Wistar rats. As to conditions: 0.625 mg/kg i.v., N = 5. An excerpt:
Adult SPF male Wistar rats weighing 180–220 g were purchased from HFK Bioscience Co. (Beijing, China), and housed in a standard temperature-, light-, and humidity-controlled animal enclosures at the institute of Radiation Medicine in Chinese Academy of Medical Sciences. All rats had free access to food and water, and were acclimated for at least 1 week. The Institute of Radiation Medicine Animal Care and Use Committee approved the protocols for the care and use of animals, and all animal procedures were carried out in accordance with the approved guidelines.
FeCl3-induced arterial injury in rats was performed following the procedure reported previously. Rats were randomly divided into 4 groups (N = 5) and fasted for 12 h before the surgery. They were anesthetized with 10% chloral hydrate (3 mL/kg, i.p.) and placed on a 37 °C warming pad throughout the experiment. The right carotid artery was exposed by blunt dissection with minimal blood loss, and a Doppler flow probe (Transonic T400, USA) was attached to the artery to monitor blood flow continuously. […] After 20 min, the filter paper was removed, and the vessel was washed with normal saline. The blood flow was monitored continuously for 30 min after injury. At the end of 30-minute period, thrombus size was evaluated by the weight. Immediately after the experiment, the rats were sacrificed by cervical dislocation while still under deep anesthesia. Data are expressed as mean ± S.D. Data were analyzed by one-way ANOVA, followed by Duncan’s post hoc test. Statistical significance was set at p < 0.05.

Data set [4] is described as follows: Particle size and zeta potential by dynamic light scattering. It is filed as physicochemical. As to conditions: Zetasizer Nano, deionized water, 25 °C, mean ± S.D., N = 3. As for the experimental part: Particle size and zeta potential were measured by dynamic light scattering (DLS) in deionized water at room temperature, as shown in Table 1.
The samples were submitted to size or zeta analysis by injecting them into disposable DLS or zeta potential cuvettes at 25 °C. The results were reported as the average of three repeated experiments.

The nature of data set [5]: UV-VIS quantification of immobilized LWWNSYY. The class given is physicochemical. As to conditions: UV-VIS absorption peak at 280 nm; B-PGMA NPs background subtracted. From the text: The chemical conjugation of LWWNSYY onto the surface of PGMA-ECH NPs was examined using fourier transform infrared spectra (FTIR) spectroscopy (Fig. 2). […] This indicates successful chemical conjugation of LWWNSYY onto the surface of PGMA-ECH NPs through the opening of epoxy group. UV-VIS spectra further confirmed formation of L-PGMA NPs (Fig. S1 in Supporting Information), with an absorption peak at 280 nm corresponding to the characteristic absorption of tryptophan residues in LWWNSYY. […] The formation of LWWNSYY clusters due to its high hydrophobicity was then expected to be inhibited.
UV-VIS spectra of L-PGMA NPs were obtained by Lambda 35 (Perkin Elmer, USA) UV-VIS spectrophotometer. Spectra were collected within a range of 200–600 nm. The nanoparticles without conjugated LWWNSYY were denoted as B-PGMA NPs. That is, the value of B-PGMA NPs with the same concentration was subtracted as background in analysis. Data were representative of three repeated experiments.

The test system of a further data set is ICR mice. The data set is described as follows: Toxicity assay of inhibitors. As to conditions: for toxicity: i.v. 2.5 mg/kg, N = 4, 7 days. The class given is in vivo. As for the experimental part: S4. Toxicity Assay of Inhibitors
Eight specific pathogen free (SPF) ICR mice weighing about 18-22 g (HFK Bioscience Co., Ltd., Beijing, China) were randomly divided into two groups (N=4, half males and half females), and then treated with LWWNSYY or L-PGMA NPs (i.v., 2.5mg/10ml/kg) to investigate their toxicity, respectively. After treatment, animals were maintained under standard conditions with food ad libitum and maintained in a 12 h/12 h light/dark cycle at room temperature. Behavior, mortality and any other clinical signs of mice were observed […]
1.Bullock, A. N. et al., Thermodynamic stability of wild-type and mutant p53 core domain. P. Natl Acad. Sci.

Triple Helical Collagen Peptide (GPO)2GFOGER(GPO)3, sequence (as listed by the source): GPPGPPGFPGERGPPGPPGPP

Turning to “LWWNSYY [L-PGMA NPs, LWWNSYY-PGMA nanoparticles conjugate; LWWNSYY immobilized to the surface of poly(glycidyl methacrylate) nanoparticles]”, the Kd in data set [1] (48 μM L-PGMA NPs in cell (concentration of conjugated LWWNSYY), single-site binding model) came to 3.45 ± 1.06 µM. In data set [1] (48 μM L-PGMA NPs in cell), this substance displayed a TΔS of 8.44 ± 0.37 kcal/mol, a ΔG of -7.09 ± 0.16 kcal/mol and a ΔH of 1.35 ± 0.21 kcal/mol. For the same substance, the “plateau of inhibition ratio curve, platelet adhesion” value in data set [2] (1–50 μg/mL LWWNSYY, 0.1–40 μg/mL L-PGMA NPs (conjugated LWWNSYY)) is 100%. The “maximum inhibition ratio (IRmax) of platelet adhesion” value in data set [2] (Hill fit, 1–50 μg/mL LWWNSYY, 0.1–40 μg/mL L-PGMA NPs (conjugated LWWNSYY) in normal saline, 18 °C, mean ± S.D., N = 8) was found to be 102.6 ± 3.4%. Further, in data set [2] (Hill fit, mean ± S.D., N = 8), the “IC50, concentration required to inhibit half of the specific binding (platelet adhesion)” value worked out at 1.83 ± 0.29 µg/mL. For the same substance, the “IC50 relative to that of free LWWNSYY” value in data set [2] (decreased to this fraction of free LWWNSYY IC50) is listed as 1/3. In addition, in data set [3] (15 min before 12% FeCl3, 30 min after injury, mean ± S.D., control 7.41 ± 1.75 mg, LWWNSYY p < 0.01, L-PGMA NPs p < 0.001 compared to control, no significant difference between the two), the thrombus weight is listed as 3.70 ± 0.45 mg. Further, the “occlusion at 30 min” value in data set [3] (15 min before 12% FeCl3) is recorded as “No occlusion was observed”. For the same substance, in data set [3] (15 min before 12% FeCl3, at end of 30-min period, p < 0.001 compared to control or LWWNSYY group), the “mean blood flow, relative to initial blood flow” value is recorded as “about 85%”. Besides, in data set [3] (30 min after injury), the “reduction of thrombus weight compared to the control group” value is reported as approximately 50%. Also, the “reduction of thrombus weight compared to LWWNSYY group” value in data set [3] (30 min after injury, difference not significant) is listed as approximately 15%. For the same substance, the “mean blood flow rate at all time points” value in data set [3] (compared to the control or LWWNSYY group) is given as “significantly higher”. In data set [4] (DLS), the Hydrodynamic diameter is given as 106.6 ± 0.91 nm and the Polydispersity index is given as 0.06 ± 0.02. This substance yielded a Zeta potential in data set [4] of −32.9 ± 0.57 mV. In addition, in data set [5], the “immobilized LWWNSYY” value was 3.2 ± 0.2 mg in 100 mg of PGMA NPs. Also, the clinical signs entry with ICR mice (2.5mg/10ml/kg i.v., N = 4 (half males, half females), observed 7 days) was “no abnormal clinical signs”. Moreover, the toxicity result with ICR mice is reported as “little toxicity”.

With LWWNSYY [LWWNSYY], the “IC50, concentration required to inhibit half of the specific binding (platelet adhesion)” value in data set [2] (Hill fit, mean ± S.D., N = 8) is 5.66 ± 1.13 µg/mL. Besides, the toxicity result in the data set with ICR mice is “little toxicity”.

One may read the Kd as a measure of binding affinity in units of concentration. A higher Kd goes with lower affinity.
